# Data reported in patent US20160318844A1, “PROSTACYCLIN COMPOUNDS, COMPOSITIONS AND METHODS OF USE THEREOF” (Insmed Incorporated, priority 2015, published 2016).
# How the values were obtained:
# NR8383 cells = test: NR8383 cell proliferation assay; assay type: cell-based, rat; settings: for Effect on cell proliferation, NR8383 Cells: detectable cell inhibition: Table 9, unformulated alkyl esters, (0.195 μM-25 μM), 72 hour incubation
# Experimental: Rat alveolar NR8383 cells were harvested when the monolayer was 50-90% confluent (use passage 5-11). Because the NR8383 cells include both adherent and non-adherent cells, media was transferred to a 50 mL Falcon tube. To obtain the cells remaining in the flask, 2 mL of plain media was added, and the remaining cells were scraped out of the 75 cm^2 flask with a cell scraper and added to the 50 mL tube. […] SH30071.03)+1×Pen-Strep (Life Technologies, cat #: 15410-122)). Cell number was determined using a hemacytometer. […] Measurements and calculations were made as described above for the CHO-K1 cells. Rat alveolar NR8383 cells were challenged with the same treprostinil derivative compositions: […]
# [1] = Treprostinil alkyl ester conversion to treprostinil in rat lung tissue homogenate; assay type: in vitro ADME; settings: 37° C., 200 nM, 10 mg/mL of protein
# Experimental: Here, data were calculated based on fit of exponential increase to the maximum (experiments performed in duplicate). The results of this study are provided below in Table 2A and FIG. 37. […] In this experiment, treprostinil alkyl esters were incubated for 4 hours at a final concentration of 200 nM in 1 mL of tissue homogenate prepared in water and normalized to 10 mg/mL of protein.
# C12-TR was incubated for 4 hours at a final concentration of 200 nM in 1 mL of tissue homogenate prepared in water and normalized to 10 mg/mL of protein. Both FIG. 37 experiments (eft and right graphs) were performed in duplicate and the lines represent nonlinear exponential regression assuming 1 phase decay. Table 2A. Rate of treprostinil alkyl ester conversion in the presence of rat, dog or monkey lung tissue homogenate.
# CHO-K1 cells = test: CHO-K1 cell proliferation assay (Presto Blue); settings: for Effect on cell proliferation, CHO-K1 Cells: detectable cell inhibition: Table 9, unformulated alkyl esters, (0.195 μM-25 μM), 48 hour incubation
# Experimental: CHO-K1 cells were harvested when the cell monolayer was 50-90% confluent (use passage 4-11). Media was aspirated out of the flask, and cells were rinsed with 2 mL of F12 media. Next, 1 mL of pre-warmed (37° C.) 0.25% trypsin-EDTA (Life Technologies, Cat#: 25300054) was added, and cells were dislodged from the flask by tapping it on the side. Complete growth media (F12 (Life Technologies, Cat #: 31765092)+10% FBS (Hyclone, Cat #: SH30071.03)+1× Pen-Strep (Life Technologies, cat #15140-122) was then added at a volume of 10 mL. Cells were centrifuged at 250×g for 5 minutes at room temperature, and the media was aspirated. The cell pellet was resuspended in 10 mL complete growth media. Cell number was determined using a hemacytometer. Cells were then seeded at 2000 cells per well of a 96-well plate in 100 μL of complete growth media. The plate was incubated overnight at 37° C. and 5% CO2 in a water-jacketed incubator.
# The next day, 80 μL of fresh complete media was added to each well, and CHO-K1 cells were challenged with treprostinil compound and composition treatments. The working solutions were prepared at 10× concentration, and following 2 fold serial dilutions, 20 μL aliquots were added per well to arrive at a final 1× concentration. Following a 48 hour incubation at 37° C. and 5% CO2 in a water-jacketed incubator, the inhibitory effect on cell proliferation was determined. Plates were analyzed using 20 μL of Presto Blue reagent (Life Technologies, cat #: A13262) per well. The reagent was mixed, and plates were incubated for 1 hour at 37° C. and 5% CO2 in a waterjacketed incubator. Plates were read using either a CytoFluor Series 4000 (PerSeptive BioSystems) or Synergy Neo microplate reader (BioTek) with emission λ: 590 nm and excitation λ: 560 nm. […]
# CHO-K1 cells were challenged with treprostinil alkyl esters, i.e., TR compounds of Formula (A), having the following R2 groups: […]
# C2, C3, C4, C5, C6, C8, C10 or C12 straight chain alkyl, at dosages ranging from 0.098 μM to 25 μM. Following a 48 hour incubation period, the inhibitory effect on cell proliferation was determined.
# Following a 72 hour incubation period, the inhibitory effect on cell proliferation was determined. Following a 48 hour incubation period, the inhibitory effect on cell proliferation was determined. […]
Rate of treprostinil alkyl ester conversion [1],Structure (SMILES),"Effect on cell proliferation, NR8383 Cells: detectable cell inhibition (NR8383 cells)","Effect on cell proliferation, CHO-K1 Cells: detectable cell inhibition (CHO-K1 cells)","inhibition of NR8383 cell proliferation (NR8383 cells; unformulated alkyl esters, highest concentration, 72 hour)","inhibition of CHO-K1 cell proliferation (CHO-K1 cells; unformulated alkyl esters, highest concentration, 48 hour)"
1.1 nmOL/h * g of protein,"CCCCCCCCCCCCOC(=O)COc1cccc2c1C[C@H]1C[C@@H](O)[C@H](CC[C@@H](O)CCCCC)[C@H]1C2 [Compound C12-TR, dodecyl-treprostinil]",No detectable cell inhibition,No detectable cell inhibition,–,–
32.5 nmOL/h * g of protein,"CCCCCCCCOC(=O)COc1cccc2c1C[C@H]1C[C@@H](O)[C@H](CC[C@@H](O)CCCCC)[C@H]1C2 [Compound C8-TR, treprostinil octyl ester]",Some detectable cell,25 µM,showed some inhibition of cell proliferation,showed inhibition of cell proliferation
